Values belong to the molecule of their own block, whether it stands above or below them.
Assays:
hTERT = experiment: Secreted alkaline phosphatase (SEAP) assay, PhTERT-SEAP (H1299); format: cell-based; details: Homo sapiens, 24 hours; for activity at 1 µM: NCI-H1299, Conc. 1 μM, read-out: Relative SEAP activity (%); for activity at 10 µM: NCI-H1299, Conc. 10 μM; for activity at 10 µM / activity at 100 µM: read-out: Relative SEAP activity (%) (converted); for activity at 100 µM: NCI-H1299, Conc. 100 μM
Method: H1299 were grown in RPMI 1640 media supplemented with 10% fetal bovine serum, 100 units/mL penicillin and […] streptomycin in a humidified atmosphere with 5% CO2 at 37° C. Culture media were changed every three days. To establish stable cell lines that the expression of hTERT could be monitored by a reporter system, a about 3.3 kbp DNA fragment ranging from −3338 to +1 bp of the hTERT gene (hTERT promoter, PhTERT) was subcloned upstream to a secreted alkaline phosphatase gene (SEAP) and transfected into H1299 by electroporation. The stable clones were selected using G418. The stable clones derived from H1299 were cultured using conditions that are similar to their parental cells.
Secreted alkaline phosphatase was used as the reporter system to monitor the transcriptional activity of hTERT. Here, about 10^4 cells each were grown in 96-well plates and incubated at 37° C. for 24 hours and changed with fresh media. Varying amounts of drugs were added and cells were incubated for another 24 hours. Culture media were collected and heated at 65° C. for 10 min to inactivate heat-labile phosphatases. An equal amount of SEAP buffer (2 M diethanolamine, 1 mM MgCl2, and 20 mM L-homoarginine) was added to the media and p-nitrophenyl phosphate was added to a final concentration of 12 mM. Absorptions at 405 nm were taken, and the rate of absorption increase is determined (the increasing rate of absorbance at 405 nm was used to represent the activity of SEAP).

[1] = MTT assay, PhTERT-SEAP (H1299); format: cell-based, human; details: human, H1299 cells carrying the PhTERT-SEAP reporter, PhTERT-SEAP (H1299); for viability at 1 μM: Conc. 1 μM, read-out: Relative MTT viability (%); for viability at 10 μM: Conc. 10 μM; for viability at 10 μM / viability at 100 μM: read-out: Relative MTT viability (%) (converted); for viability at 100 μM: Conc. 100 μM
Method: Further, cells were subjected to MTT assay to compare the relative toxicity or effect of each compound on cell proliferation and activity.
The above-described cells are cultured in a 96-well plate, to which was added with 25 μl MTT solution, and cultured in a 37° C. carbon dioxide incubator for 4 hours. Then, 100 μl Lysis buffer is added and incubated in a 37° C. carbon dioxide incubator overnight. An ELISA reader (Bio-Rad Model 450) is used to read optical density (O.D.) at 550 nm.

SMILES: Cc1ccc(C(=O)Nc2c(NC(=O)CN3CCN(c4ccccn4)CC3)ccc3c2C(=O)c2ccccc2C3=O)cc1 [CC-49, 1-(4-methylbenzamido)-2-[2-[4-(2-pyridyl)piperazino]acetylamino]-anthraquinone]
activity at 1 µM (hTERT): 97.1 ± 7.43%
activity at 10 µM (hTERT): 64.3%
activity at 100 µM (hTERT): 9.96%
viability at 1 μM [1]: 105 ± 3.65%
viability at 10 μM [1]: 100%
viability at 100 μM [1]: 6.46%
melting point: 258 to 259 °C

SMILES: O=C(CCl)Nc1ccc2c(c1NC(=O)CCCl)C(=O)c1ccccc1C2=O [CC-07, 1-[(3-chloropropanyl)amido]-2-(chloroacetamido)-anthraquinone]
activity at 1 µM (hTERT): 114 ± 6.14%
activity at 10 µM (hTERT): 92.9%
activity at 100 µM (hTERT): 15.2%
viability at 1 μM [1]: 103 ± 7.01%
viability at 10 μM [1]: 79.9%
viability at 100 μM [1]: 19%
melting point: 182 to 183 °C

SMILES: Cc1cc(C(=O)Nc2c(NC(=O)CCl)ccc3c2C(=O)c2ccccc2C3=O)c(C)o1 [CC-30, 1-[(2,5-dimethyl-3-furoyl)amino]-2-(chloroacetamido)-anthraquinone]
activity at 1 µM (hTERT): 81.2 ± 1.85%
activity at 10 µM (hTERT): 2.37%
activity at 100 µM (hTERT): 0.83%
viability at 1 μM [1]: 96 ± 2.27%
viability at 10 μM [1]: 2.93%
melting point: 207 to 208 °C

SMILES: O=C(CCl)Nc1ccc2c(c1NC(=O)CCCCl)C(=O)c1ccccc1C2=O [CC-08, 1-[(4-chlorobutanyl)amido]-2-(chloroacetamido)-anthraquinone]
activity at 1 µM (hTERT): 108 ± 9.03%
activity at 10 µM (hTERT): 97.1%
activity at 100 µM (hTERT): 30.9%
viability at 1 μM [1]: 100 ± 4.4%
viability at 10 μM [1]: 117%
viability at 100 μM [1]: 62%
melting point: 163 to 164 °C

SMILES: O=C(CCl)Nc1ccc2c(c1NC(=O)c1ccccc1C(F)(F)F)C(=O)c1ccccc1C2=O [CC-19, 1-[2-(trifluoromethyl)benzamido]-2-(chloroacetamido)-anthraquinone]
activity at 1 µM (hTERT): 93.5 ± 6.11%
activity at 10 µM (hTERT): 4.89%
activity at 100 µM (hTERT): 2.4%
viability at 1 μM [1]: 93.2 ± 2.95%
viability at 10 μM [1]: 3.42%
melting point: 248 to 250 °C

SMILES: O=C(CCl)Nc1ccc2c(c1NC(=O)c1cccc(C(F)(F)F)c1)C(=O)c1ccccc1C2=O [CC-20, 1-[3-(trifluoromethyl)benzamido]-2-(chloroacetamido)-anthraquinone]
activity at 1 µM (hTERT): 99.8 ± 4.15%
activity at 10 µM (hTERT): 4.53%
activity at 100 µM (hTERT): 0.32%
viability at 1 μM [1]: 94.7 ± 3.59%
viability at 10 μM [1]: 5.15%
viability at 100 μM [1]: 3.37%
melting point: 190 to 191 °C

SMILES: O=C(CN1CCN(c2ccccc2F)CC1)Nc1ccc2c(c1NC(=O)c1ccccc1)C(=O)c1ccccc1C2=O [CC-34, 1-(benzamido)-2-[2-[4-(2-fluorophenyl)piperazino]acetylamino]-anthraquinone]
activity at 1 µM (hTERT): 98.7 ± 2.55%
activity at 10 µM (hTERT): 79.6 ± 1.35%
activity at 100 µM (hTERT): 15.6 ± 1.54%
viability at 1 μM [1]: 98.6 ± 2.29%
viability at 10 μM [1]: 92.3 ± 2.41%
viability at 100 μM [1]: 27.8 ± 4.82%
melting point: 228 to 229 °C

SMILES: O=C(CCl)Nc1ccc2c(c1NC(=O)C1CC1)C(=O)c1ccccc1C2=O [CC-25, 1-[(cyclopropanecarbonyl)amino]-2-(chloroacetamido)-anthraquinone]
activity at 1 µM (hTERT): 83.8 ± 2.67%
activity at 10 µM (hTERT): 3.46%
activity at 100 µM (hTERT): 1.38%
viability at 1 μM [1]: 88.7 ± 3.92%
melting point: 191 to 192 °C

SMILES: O=C(CCl)Nc1ccc2c(c1NC(=O)C1CCCCC1)C(=O)c1ccccc1C2=O [CC-26, 1-[(cyclohexanecarbonyl)amino]-2-(chloroacetamido)-anthraquinone]
activity at 1 µM (hTERT): 82.5 ± 4.53%
activity at 10 µM (hTERT): 3.07%
activity at 100 µM (hTERT): 1.76%
viability at 1 μM [1]: 82.3 ± 4.4%
viability at 10 μM [1]: 1.54%
melting point: 216 to 217 °C

SMILES: O=C(CCl)Nc1ccc2c(c1NC(=O)c1ccno1)C(=O)c1ccccc1C2=O [CC-29, 1-[(5-isoxazolecarbonyl)amino]-2-(chloroacetamido)-anthraquinone]
activity at 1 µM (hTERT): 92.5 ± 0.99%
activity at 10 µM (hTERT): 4.91%
activity at 100 µM (hTERT): 1.35%
viability at 1 μM [1]: 105 ± 7.19%
viability at 10 μM [1]: 3.47%
viability at 100 μM [1]: 0.11%
melting point: 212 to 213 °C

SMILES: O=C1c2c(O)ccc(O)c2C(=O)c2c(NCCNCCO)ccc(NCCNCCO)c21 [mitoxantrone, reference compound]
activity at 1 µM (hTERT): 20.8 ± 1.56%
activity at 10 µM (hTERT): 9.92%
activity at 100 µM (hTERT): 7.19%

SMILES: Nc1ccc2c(c1N)C(=O)c1ccccc1C2=O [1,2-diaminoanthraquinone, reference compound]
activity at 1 µM (hTERT): 98.5 ± 11.7%
activity at 10 µM (hTERT): 77.3%
activity at 100 µM (hTERT): 18.2%

SMILES: Cc1ccc(C(=O)Nc2c(NC(=O)CN3CCN(c4ccccc4C#N)CC3)ccc3c2C(=O)c2ccccc2C3=O)cc1 [CC-47, 1-(4-methylbenzamido)-2-[2-[4-(2-cyanophenyl)piperazino]acetylamino]-anthraquinone]
activity at 1 µM (hTERT): 81 ± 9.56%
activity at 10 µM (hTERT): 74.2%
activity at 100 µM (hTERT): 20.8%
viability at 1 μM [1]: 72 ± 11.1%
viability at 10 μM [1]: 60.1%
viability at 100 μM [1]: 48.2%
melting point: 238 to 239 °C

Further lines, with some results ahead:

melting point: 213 to 214 °C
SMILES: Cc1ccc(C(=O)Nc2c(NC(=O)CN3CCCCC3)ccc3c2C(=O)c2ccccc2C3=O)cc1 [CC-39, N-(9,10-dioxo-2-(2-(piperidin-1-yl)acetamido)-9,10-dihydroanthracen-1-yl)-4-methylbenzamide]
activity at 1 µM (hTERT): 85.4 ± 7.56%
activity at 10 µM (hTERT): 70.1%
activity at 100 µM (hTERT): 8.3%
viability at 1 μM [1]: 86.3 ± 6.52%
viability at 10 μM [1]: 70.2%
viability at 100 μM [1]: 10.8%

melting point: 188 to 189 °C
SMILES: O=C(CCl)Nc1ccc2c(c1NC(=O)c1cccc(Cl)c1)C(=O)c1ccccc1C2=O [CC-17, 1-(3-chlorobenzamido)-2-(chloroacetamido)-anthraquinone]
activity at 1 µM (hTERT): 80.9 ± 3.9%
activity at 10 µM (hTERT): 6.65%
activity at 100 µM (hTERT): 3.51%
viability at 1 μM [1]: 89.7 ± 2.74%
viability at 10 μM [1]: 5.08%

melting point: 193 to 194 °C
SMILES: O=C(CCl)Nc1ccc2c(c1NC(=O)c1ccccc1Cl)C(=O)c1ccccc1C2=O [CC-16, 1-(2-chlorobenzamido)-2-(chloroacetamido)-anthraquinone]
activity at 1 µM (hTERT): 81.6 ± 48.2%
activity at 10 µM (hTERT): 5.35%
activity at 100 µM (hTERT): 1.23%
viability at 1 μM [1]: 102 ± 4.26%
viability at 10 μM [1]: 6.63%

melting point: 211 to 212 °C
SMILES: O=C(CCl)Nc1ccc2c(c1NC(=O)c1ccco1)C(=O)c1ccccc1C2=O [CC-27, 1-[(2-furoyl)amino]-2-(chloroacetamido)-anthraquinone]
activity at 1 µM (hTERT): 84.7 ± 23.3%
activity at 10 µM (hTERT): 2.94%
activity at 100 µM (hTERT): 2.62%
viability at 1 μM [1]: 80.4 ± 3.56%

melting point: 210 to 211 °C
SMILES: Cc1ccc(C(=O)Nc2c(NC(=O)CN3CCSCC3)ccc3c2C(=O)c2ccccc2C3=O)cc1 [CC-42, 1-(4-methylbenzamido)-2-[2-(1,4-thiazinan-4-yl)acetylamino]-anthraquinone]
activity at 1 µM (hTERT): 88 ± 1.2%
activity at 10 µM (hTERT): 72.6%
activity at 100 µM (hTERT): 12.2%
viability at 1 μM [1]: 85.8 ± 7.69%
viability at 10 μM [1]: 70%
viability at 100 μM [1]: 20%

melting point: 225 to 226 °C
SMILES: Cc1ccc(C(=O)Nc2c(NC(=O)CN3CCOCC3)ccc3c2C(=O)c2ccccc2C3=O)cc1 [CC-41, 1-(4-methylbenzamido)-2-[(2-morpholinoacetyl)amino]-anthraquinone]
activity at 1 µM (hTERT): 98.37 ± 0.9%
activity at 10 µM (hTERT): 54.2%
activity at 100 µM (hTERT): 3.75%
viability at 1 μM [1]: 81.5 ± 6.24%
viability at 10 μM [1]: 56.7%
viability at 100 μM [1]: 15.5%

melting point: 202 to 203 °C
SMILES: Cc1cccc(C(=O)Nc2c(NC(=O)CCl)ccc3c2C(=O)c2ccccc2C3=O)c1 [CC-11, 1-(3-methylbenzamido)-2-(chloroacetamido)-anthraquinone]
activity at 1 µM (hTERT): 116 ± 14.8%
activity at 10 µM (hTERT): -1.91%
activity at 100 µM (hTERT): -3.1%
viability at 1 μM [1]: 72.8 ± 3.83%
viability at 10 μM [1]: 0.7%

melting point: 190 to 191 °C
SMILES: O=C(CCl)Nc1ccc2c(c1NC(=O)c1cccs1)C(=O)c1ccccc1C2=O [CC-28, 1-[(2-thiophenecarbonyl)amino]-2-(chloroacetamido)-anthraquinone]
activity at 1 µM (hTERT): 5.81 ± 23.3%
activity at 10 µM (hTERT): 3.03%
activity at 100 µM (hTERT): 2.2%
